Laboratory results published in publication PMC10892041, “Vanadium Complexes with Thioanilide Derivatives of Amino Acids: Inhibition of Human Phosphatases and Specificity in Various Cell Models of Metabolic Disturbances” (Pharmaceuticals, 2024).
Like-named read-outs stand apart in the source and are kept apart here.

Key:
[1] = molecular target: T1, LAR (Homo sapiens, UniProt P10586); test: Inhibition of human recombinant tyrosine phosphatase LAR (DiFMUP fluorescence); format: biochemical; conditions: for Inhibition of LAR, percentage of inhibition of the control: 1 µM, control solvent only, SD did not exceed 6%
T1 sequence (P10586 1352-1607 limits assumed): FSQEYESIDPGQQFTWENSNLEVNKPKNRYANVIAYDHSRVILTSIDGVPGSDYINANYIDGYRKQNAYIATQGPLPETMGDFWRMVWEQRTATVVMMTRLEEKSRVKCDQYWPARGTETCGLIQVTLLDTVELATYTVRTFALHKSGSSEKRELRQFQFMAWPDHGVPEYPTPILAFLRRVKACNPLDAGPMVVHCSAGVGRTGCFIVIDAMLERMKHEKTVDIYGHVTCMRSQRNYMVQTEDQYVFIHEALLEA
Description: (§1) To determine the ability of the tested compounds for inhibition tyrosine phosphatases, human recombinant proteins were used (Sigma-Aldrich). The reactions were performed in black opaque 384-well microplates (PerkinElmer, Waltham, MA, USA). An equal volume of phosphatase solution in a reaction buffer (25 mM of 3-(N-morpholino)propanesulfonic acid (MOPS), 50 mM NaCl, 1 mM dithiothreitol (DTT), and 0.05% Tween-20 (pH 7.0)) was added to the solution of the tested compound on microplate. These solutions were dispensed using an automated injector. The following final concentrations of the tested phosphatases were used: PTP1B 50 ng/mL, SHP1 400 ng/mL, SHP2 50 ng/mL, LAR 5 ng/mL, and PTPRA 100 ng/mL. After 10 min, a solution of phosphate 6,8-difluoro-4-methyl (DiFMUP; Thermo Fisher Scientific) was added until its final concentration was 0.1 mM. Samples were incubated for 20 miN at 23 °C, and then the measurements of fluorescence intensity (excitation 355 and emission […]) were performed on a multifunctional plate reader POLARstar Omega (BMG Labtech, Ortenberg, Germany). Assays were performed in triplicate. For the screening assays, the final concentration of the tested compounds was 1 µM. The results were expressed as percent inhibition of untreated control (enzyme with vehicle only) for the screening tests. […] IC50 were calculated using GraphPad Prism version 6.0 software (GraphPad Software, Boston, MA, USA).

[2] = system: myocytes C2C12; test: Viability of myocytes C2C12 after 24 h incubation (resazurin-based reagent); conditions: 50 µM
Description: Simultaneously with glucose consumption tests, the viability of myocytes C2C12 was examined due to their prolonged 24 h incubation with vanadium complexes.
Prolonged incubation of the cells with vanadium complexes, as was the case during the study of the effect on glucose consumption, more closely corresponds to the actual conditions of clinical use, also allowing for the identification of possible cytotoxic effects. […] A Resazurin-based reagent is reduced proportionally to the metabolic activity of cells as a result of the transference of electrons from NADPH+H^+, the amount of which strictly depends on glucose metabolism.

[3] = molecular target: T2, PTP1B (Homo sapiens, UniProt P18031); test: Inhibition of human recombinant tyrosine phosphatase PTP1B (DiFMUP fluorescence); format: biochemical; conditions: for Inhibition of PTP1B, percentage of inhibition of the control: 1 µM, control solvent only, SD did not exceed 6%
T2 construct: purchased Sigma-Aldrich
T2 sequence (P18031 1-435): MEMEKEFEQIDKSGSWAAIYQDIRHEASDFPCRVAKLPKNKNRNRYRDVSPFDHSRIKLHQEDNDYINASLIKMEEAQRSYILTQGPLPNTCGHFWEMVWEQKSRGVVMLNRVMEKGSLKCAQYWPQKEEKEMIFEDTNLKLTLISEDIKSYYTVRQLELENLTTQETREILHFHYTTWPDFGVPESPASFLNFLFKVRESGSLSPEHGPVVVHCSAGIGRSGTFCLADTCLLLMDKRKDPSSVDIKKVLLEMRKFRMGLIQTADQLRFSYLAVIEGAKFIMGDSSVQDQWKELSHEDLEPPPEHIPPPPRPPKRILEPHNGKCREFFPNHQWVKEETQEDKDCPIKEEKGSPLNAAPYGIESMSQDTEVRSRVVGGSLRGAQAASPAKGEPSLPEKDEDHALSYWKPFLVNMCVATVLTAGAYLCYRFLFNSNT
Description: as §1

[4] = molecular target: T3, CDC25A (Homo sapiens, UniProt P30304); test: Inhibition of human recombinant non-tyrosine phosphatase CDC25A (3-O-methylfluorescein phosphate); format: biochemical
T3 construct: purchased Sigma-Aldrich
T3 sequence (P30304 1-524): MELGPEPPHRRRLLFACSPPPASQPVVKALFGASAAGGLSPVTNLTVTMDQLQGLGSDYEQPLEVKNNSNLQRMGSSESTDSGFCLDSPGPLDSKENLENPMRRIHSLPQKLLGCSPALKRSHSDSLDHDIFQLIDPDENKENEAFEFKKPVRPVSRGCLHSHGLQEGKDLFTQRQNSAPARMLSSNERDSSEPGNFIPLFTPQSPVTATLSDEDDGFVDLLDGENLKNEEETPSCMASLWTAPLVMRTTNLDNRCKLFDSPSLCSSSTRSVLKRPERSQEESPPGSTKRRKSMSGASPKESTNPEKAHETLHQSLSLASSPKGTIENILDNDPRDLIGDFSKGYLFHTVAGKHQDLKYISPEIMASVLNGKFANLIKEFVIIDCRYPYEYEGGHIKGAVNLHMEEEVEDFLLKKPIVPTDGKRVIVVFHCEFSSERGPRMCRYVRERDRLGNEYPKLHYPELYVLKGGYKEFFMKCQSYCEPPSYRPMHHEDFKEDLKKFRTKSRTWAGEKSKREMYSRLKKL
Description: (§2) For the inhibition assay of non-tyrosine phosphatases, human recombinant proteins were used (Sigma-Aldrich). The reactions were performed in black opaque 384-well microplates (PerkinElmer). To the solution of the tested complexes, an equal volume of a test solution of phosphatase was added. CDC25A were diluted in reaction buffer to the final concentration of 400 ng/mL as for tyrosine phosphatases (described in the section above), and PPA2 (final 0.5 U/mL) was diluted in 50 mM Tris-HCl, 0.05% Tween-20, and 125 µg/mL protease-free bovine serum albumin (pH 7.0). These solutions were dispensed using an automated injector. After 10 min, a solution of phosphate 6,8-difluoro-4-methyl (DiFMUP; Thermo Fisher Scientific) was added for the PPA2 sample until the final concentration 0.1 mM. For CDC25A samples, 3-O-methylfluorescein phosphate for the final concentration of 0.2 mM was added. Samples were incubated for 180 min at 23 °C, and then the measurements of fluorescence intensity (excitation 355 and emission 560 nm) were performed on a multifunctional plate reader POLARstar Omega (BMG Labtech). Assays were performed in triplicate. The results were expressed as percent of inhibition of untreated control (enzyme with vehicle solvent only).

[5] = molecular target: T4, SHP1 (Homo sapiens, UniProt P29350); test: Inhibition of human recombinant tyrosine phosphatase SHP1 (DiFMUP fluorescence); format: biochemical; conditions: for Inhibition of SHP1, percentage of inhibition of the control: 1 µM, control solvent only, SD did not exceed 6%
T4 construct: purchased Sigma-Aldrich
T4 sequence (P29350 whole entry): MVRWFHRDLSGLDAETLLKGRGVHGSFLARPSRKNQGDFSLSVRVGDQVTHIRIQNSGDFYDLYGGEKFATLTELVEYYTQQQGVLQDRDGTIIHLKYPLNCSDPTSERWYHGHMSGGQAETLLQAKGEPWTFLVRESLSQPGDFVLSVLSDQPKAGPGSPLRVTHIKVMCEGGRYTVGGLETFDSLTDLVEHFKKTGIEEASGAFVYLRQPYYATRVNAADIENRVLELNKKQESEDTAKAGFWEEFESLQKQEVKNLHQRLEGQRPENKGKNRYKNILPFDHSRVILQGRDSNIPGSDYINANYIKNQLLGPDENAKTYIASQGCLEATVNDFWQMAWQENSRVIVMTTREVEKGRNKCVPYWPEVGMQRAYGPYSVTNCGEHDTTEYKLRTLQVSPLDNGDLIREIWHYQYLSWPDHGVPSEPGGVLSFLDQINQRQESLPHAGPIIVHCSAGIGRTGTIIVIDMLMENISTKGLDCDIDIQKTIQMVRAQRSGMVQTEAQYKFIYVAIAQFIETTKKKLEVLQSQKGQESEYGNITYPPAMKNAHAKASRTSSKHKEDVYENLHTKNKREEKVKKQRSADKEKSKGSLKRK
Description: as §1

[6] = molecular target: PP2A (Homo sapiens, UniProt P67775); test: Inhibition of human recombinant non-tyrosine phosphatase PP2A (DiFMUP); format: biochemical
Chain of PP2A (P67775 whole entry): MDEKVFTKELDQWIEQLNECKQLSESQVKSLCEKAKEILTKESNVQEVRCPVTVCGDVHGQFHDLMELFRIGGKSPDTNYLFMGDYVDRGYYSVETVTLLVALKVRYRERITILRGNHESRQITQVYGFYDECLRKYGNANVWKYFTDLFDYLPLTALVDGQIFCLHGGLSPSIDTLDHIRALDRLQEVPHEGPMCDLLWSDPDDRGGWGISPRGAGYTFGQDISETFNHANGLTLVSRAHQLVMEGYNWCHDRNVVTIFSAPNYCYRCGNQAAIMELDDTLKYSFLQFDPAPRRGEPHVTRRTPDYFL
Description: as §2

[7] = molecular target: T5, SHP2 (Homo sapiens, UniProt Q06124); test: Inhibition of human recombinant tyrosine phosphatase SHP2 (DiFMUP fluorescence); format: biochemical; conditions: for Inhibition of SHP2, percentage of inhibition of the control: 1 µM, control solvent only, SD did not exceed 6%
T5 construct: purchased Sigma-Aldrich
T5 sequence (Q06124 1-593): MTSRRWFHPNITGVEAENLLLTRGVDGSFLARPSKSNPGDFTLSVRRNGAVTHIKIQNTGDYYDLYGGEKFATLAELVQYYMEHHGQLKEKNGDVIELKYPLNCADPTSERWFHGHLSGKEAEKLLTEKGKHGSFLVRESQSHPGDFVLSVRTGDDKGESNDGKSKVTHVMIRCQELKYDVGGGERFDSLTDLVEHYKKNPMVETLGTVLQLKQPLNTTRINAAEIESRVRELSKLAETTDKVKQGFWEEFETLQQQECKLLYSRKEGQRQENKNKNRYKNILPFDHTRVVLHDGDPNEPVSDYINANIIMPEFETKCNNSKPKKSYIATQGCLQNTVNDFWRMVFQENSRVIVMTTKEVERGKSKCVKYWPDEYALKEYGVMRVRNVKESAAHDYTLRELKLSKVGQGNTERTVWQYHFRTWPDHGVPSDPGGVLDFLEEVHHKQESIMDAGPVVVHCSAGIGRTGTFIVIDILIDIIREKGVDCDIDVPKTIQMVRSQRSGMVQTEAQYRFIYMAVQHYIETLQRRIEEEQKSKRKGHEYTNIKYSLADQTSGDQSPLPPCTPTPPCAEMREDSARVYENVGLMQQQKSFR
Description: as §1

[8] = system: myocytes C2C12; test: Scintillation proximity assay, transport of [14C]-deoxy-D-glucose into myocytes C2C12; format: cell-based, mouse; conditions: 50 µM; control solvent only
Description: The myocyte C2C12 cell line (ATCC CRL-1772), a subclone of myoblasts from mouse muscles, was cultured according to standard protocol in DMEM supplemented with 10% fetal calf serum, 100 IU/ml penicillin, and […] streptomycin at 37 °C in 5% CO2. Cells were pleated on a 96-well microplate and after reach confluence were differentiated in medium with 2% horse serum. Differentiation medium was changed every 72 h.
(§3) Scintillation proximity assay (SPA) is a method to measure the real-time accumulation of radiolabeled substrates by adherent cells with no filtration needed. Radioactivity concentrated closer to the scintillator embedded in the plastic bottom of each well provides a stronger signal than the radiolabeled substrate in the culture medium. Uptake of radiolabeled 2-deoxy-D-[U-14C]-glucose was conducted based on previous descriptions.
After 24 h incubation, the tested complexes were added. After 2 h incubation at 37 °C in 5% CO2, the medium was changed to low-glucose medium (1000 mg/L), and the tested complexes were added again, with further incubation for 4 h being conducted.
(§4) For cells proceeded as above, 2-deoxy-D-[U-14C]-glucose (250–350 mCi/mmol, NEC720A, PerkinElmer) solution in KRB with a total activity of 0.03 mCi was added to each well. […] Non-specific radioactivity was subtracted from each result (cpm). Two independent experiments with triplicates were conducted.

[9] = system: adipocytes 3T3-L1; test: Scintillation proximity assay, transport of [14C]-deoxy-D-glucose into adipocytes 3T3-L1; format: cell-based, mouse; conditions: 50 µM
Description: Adipocytes 3T3-L1 cell line (ATCC CRL-11605) derived from fibroblasts from mouse embryo tissue were cultured according to standard protocol in DMEM medium supplemented with 10% bovine calf serum, 100 IU/mL penicillin, and […] streptomycin at 37 °C in 5% CO2. Cells were seeded in 96-well poly-D-lysine-coated plates and cultured to reach confluency.
as §3
Adipocytes were washed and the medium was changed to the basal medium. After 24 h incubation, the tested complexes were added. After 2 h incubation at 37 °C in 5% CO2, the medium was changed to DMEM medium without glucose, with 0.1% BSA free from fatty acid, […] L-glutamine, and […] pyruvate. The tested complexes were added again, and further incubation for 4 h was conducted.
as §4

Structure (SMILES)	IC50 [1] [nM]	Inhibition of LAR, percentage of inhibition of the control [1] [%]	Cell viability of myocytes C2C12, % of the control [2] [%]	Inhibition of PTP1B, percentage of inhibition of the control [3] [%]	Log IC50 ± SD PTP1B ([3]; logarithm of IC50)	IC50 ([3]; read-out: IC50 PTP1B) [nM]	IC50 ([3]; read-out: IC50 for PTP1B) [nM]	Inhibition of CDC25A, percentage inhibition of control ± SD ([4]; 1 µM) [%]	Inhibition of CDC25A, percentage inhibition of control ± SD ([4]; 10 µM) [%]	IC50 [5] [nM]	Inhibition of SHP1, percentage of inhibition of the control [5] [%]	Log IC50 ± SD SHP1 ([5]; logarithm of IC50)	Inhibition of PP2A, percentage inhibition of control ± SD ([6]; 1 µM) [%]	Inhibition of PP2A, percentage inhibition of control ± SD ([6]; 10 µM) [%]	IC50 [7] [nM]	Inhibition of SHP2, percentage of inhibition of the control [7] [%]	Transport of [14C]-deoxy-D-glucose into C2C12 myocytes, % of the control [8]	Transport of [14C]-deoxy-D-glucose into 3T3-L1 adipocytes, % of control [9]
CC(CC(=S)Nc1ccccc1)=NC(Cc1ccccc1)C(=O)[O][V](=[O])([Cl])[Cl] (stereo not shown) [VC059, [VOCl2(L2)]·0.5Et2O·1.5HCl]	76	71	86 ± 6	79	−6.97 ± 0.01	107	110	55 ± 3	68 ± 3	26	82	−7.59 ± 0.04	44 ± 1	54 ± 9	13	87	–	–
CC(CC(=S)Nc1ccccc1)=NC(CC(C)C)C(=O)[O][V](=[O])([Cl])[Cl] (stereo not shown) [VC070, [VOCl2(L3)]·0.5Et2O·3HCl]	–	69	–	79	–	–	–	–	–	–	84	–	–	–	–	88	158 ± 10 % of control	159 % of control
